Laboratory results: ChEMBL document CHEMBL1151079, “On the mechanism of activation of designed enediynes with selective cytotoxicity” (Bioorg Med Chem Lett, 1992)

Experiments:
CAPAN-1 = experiment: Compound tested for cytotoxic Activity against Capan-l cell line from pancreatic carcinoma; assay type: functional, cell-based; conditions: Homo sapiens
MCF7 = experiment: Compound tested for cytotoxic Activity against MCF-7 cell line from breast carcinoma; assay type: functional, cell-based; conditions: Homo sapiens
MOLT-4 = experiment: Compound tested for cytotoxic Activity against Molt-4 cell line from T cell leukemia; assay type: functional, cell-based; conditions: Homo sapiens
CHO [1] = experiment: (§1) Compound tested for cytotoxic Activity against CHO cell line; assay type: functional, cell-based; conditions: Cricetulus griseus
HL-60 = experiment: Compound tested for cytotoxic Activity against HL-60 cell line from promyelocytic leukemia; assay type: functional, cell-based; conditions: Homo sapiens
UCLA P-3 = experiment: Compound tested for cytotoxic Activity against UCLA-P3 cell line from lung carcinoma; assay type: functional, cell-based; conditions: Homo sapiens
H322 [2] = experiment: Compound tested for cytotoxic Activity against H-322 cell line from lung carcinoma; assay type: functional, cell-based; conditions: Homo sapiens, NCI-H322
HT-29 = experiment: Compound tested for cytotoxic Activity against HT-29 cell line from colon carcinoma; assay type: functional, cell-based; conditions: Homo sapiens
OVCAR-3 = experiment: Compound tested for cytotoxic Activity against Ovcar-3 cell line from ovarian carcinoma; assay type: functional, cell-based; conditions: Homo sapiens
P388 = experiment: Compound tested for cytotoxic Activity against P-388 cell line from mouse leukemia; assay type: functional, cell-based
NHDF [3] = experiment: (§2) Compound tested for cytotoxic Activity against NHDF cell line; assay type: functional, cell-based; conditions: Homo sapiens
SK-MEL-28 = experiment: Compound tested for cytotoxic Activity against SK-Mel-28 cell line from melanoma; assay type: functional, cell-based; conditions: Homo sapiens
H322 [4] = experiment: Compound tested for cytotoxic Activity against H-322 cell line from lung carcinoma; Non toxic; assay type: functional, cell-based, Homo sapiens
NHDF [5] = experiment: as §2; assay type: cell-based; conditions: Homo sapiens
CHO [6] = experiment: as §1; assay type: cell-based; conditions: Cricetulus griseus
CHO [7] = experiment: Compound tested for cytotoxic Activity against CHO cell line; Not toxic; assay type: functional, cell-based, Cricetulus griseus
NHDF [8] = experiment: Compound tested for cytotoxic Activity against NHDF cell line; Not toxic; assay type: functional, cell-based, Homo sapiens

Compound | IC50 (CAPAN-1) [µM] | IC50 (MCF7) [µM] | IC50 (MOLT-4) [µM] | IC50 (CHO [1]) [µM] | IC50 (HL-60) [µM] | IC50 (UCLA P-3) [µM] | IC50 (H322 [2]) [µM] | IC50 (HT-29) [µM] | IC50 (OVCAR-3) [µM] | IC50 (P388) [µM] | IC50 (NHDF [3]) [µM] | IC50 (SK-MEL-28) [µM] | IC50 (H322 [4]) | IC50 (NHDF [5]) [µM] | IC50 (CHO [6]) [µM] | IC50 (CHO [7]) | IC50 (NHDF [8])
C[C@@H](COC(=O)N1c2ccccc2[C@@]23O[C@]24CCC[C@@H]3C#C/C=C\C#C[C@H]14)S(=O)(=O)c1ccccc1 | 3.1 | 25 | 0.01 | 1000 | 0.78 | 3.1 | 13 | 0.78 | 3.1 | 1.6 | 1000 | 50 | – | – | – | – | –
C[C@H](COC(=O)N1c2ccccc2[C@@]23O[C@]24CCC[C@@H]3C#C/C=C\C#C[C@H]14)S(=O)(=O)c1ccccc1 | 6.3 | > 1000 | 10 | > 1000 | 1.6 | 13 | – | 13 | 13 | 1.6 | > 1000 | > 1000 | Non-toxic | – | – | – | –
O=C(OCCS(=O)(=O)c1ccccc1)N1c2ccccc2[C@@]23O[C@]24CCC[C@@H]3C#C/C=C\C#C[C@H]14 | 0.078 | 3.1 | 1e-05 | – | 0.098 | 0.78 | 3.1 | 0.39 | 0.78 | 0.098 | – | 63 | – | 6.3 | 6.3 | – | –
CC(C)(COC(=O)N1c2ccccc2[C@@]23O[C@]24CCC[C@@H]3C#C/C=C\C#C[C@H]14)S(=O)(=O)c1ccccc1 | 50 | 25 | 1000 | – | 25 | 50 | 50 | 25 | 50 | 13 | – | < 1000 | – | – | – | Non-toxic | Non-toxic
